# According to patent publication EP4417202A1, “ANTI-CANCER ACTION OF BAG1-SELECTIVE IMIDAZOPYRIDINE COMPOUNDS IN STEROID HORMONE RECEPTOR-POSITIVE BREAST AND PROSTATE CANCER” (Karlsruher Institut für Technologie, priority 2023, dated 2024):
# Tests used:
# [1] = test system: MCF-7 tumors; test: Mouse xenograft experiment, MCF-7; type: in vivo; details: MCF-7 xenograft
# Procedure: MCF-7 and LAPC-4 cells (2×10^6) were suspended in 100 µl PBS: Matrigel (Corning NY USA, 1:1) and injected subcutaneously into both flanks of 6-7 weeks old female (for MCF-7 cells) and male (for LAPC-4 cells) athymic nude-Foxn1^nu mice (Envigo RMS GmbH, Düsseldorf, Germany). When tumor volumes were around 50 to100 mm^3, mice were randomized into four groups (7 mice per group) and treated daily by oral gavage as follows: (1) Control group (Vehicle) (corn oil, 1.0% dimethyl sulfoxide (DMSO) and (2) X15695 group, 30 mg per kg body weight) for the MCF-7 tumors or (1) Control group (Vehicle) (corn oil, 1.0% dimethyl sulfoxide (DMSO) (2) enzalutamide (Enza group, 15 mg per kg body weight), (3) X15695 group, 30 mg per kg body weight) and, (4) X15695 group (15 mg per kg body weight) for the LAPC-4 tumors. Body weight and tumor volumes were measured twice a week. Tumor volume was measured with a digital vernier caliper and calculated using the formula vol = length × width × height × 0.5236 and recorded or calculated relative to the starting volume which was nominally set at 100%. After 16 days for the MCF-7 tumors or 42 days for the LAPC-4 tumors, mice were sacrificed and the tumors removed, photographed, and weighed. Percent body weight change was calculated using the following formula: group percent weight change = [(new weight - initial weight)/initial weight] × 100]. Tumors were snap-frozen and stored for Western blot analysis.
# [2] = test system: reactive oxygen species (ROS); test: Reduced 2',7'-dichlorofluorescein (DCF) diacetate oxidation assay; type: cell-based; details: 48 h
# Procedure: For measurements of ROS levels, MCF-7 and T47D cells were seeded at 1×10^3 cells in RPMI 1640 supplemented with 10% FBS and treated with 10^-9 - 10^-6 M X15695 for 48 h. Afterwards, cells were loaded with 10 µM) H2DCF-DA (Thermo Fisher Scientific, Karlsruhe, Germany) in phenol red-free medium for 40 min. Cells were subsequently washed with medium and further incubated in medium for 120 min before analysis of fluorescence at 485 nm excitation and 530 nm emission using a multi-well fluorescence reader (SpectraMax iD3, Molecular Devices with SoftMax Pro 7 software, Biberach an der Riss, Germany). After the DCF assay, cells were frozen at -80°C overnight. After thawing, DNA was stained with a Hoechst dye (10 µg/ml final concentration) for 30 min at room temperature and fluorescence was measured at 352 nm excitation and 454 nm emission in a multi-well fluorescence reader (SpectraMax iD3, Molecular Devices with SoftMax Pro 7 software, Biberach an der Riss, Germany). DCF fluorescent intensities were normalized to Hoechst fluorescent intensities.
# [3] = test system: LAPC-4 cells; test: FACS cell cycle analysis; type: cell-based; details: 1 µM, 48 h, DRAQ5
# Procedure: (§1) LNCaP, LAPC-4, MCF-7 and T47D cells were treated with 1 µM X15695 or DMSO for 48 h. Single cell suspensions (1×10^6 cells) were prepared in 150 µl PBS/10% FBS. Cells were fixed by addition of 5 ml ice-cold ethanol (70%) and over-night incubation at 4°C. Fixed LNCaP and LAPC-4 cells were stained with 20 µM DRAQ5 (5mM stock, Thermo Fisher Scientific) and incubated for 15 min at room temperature. Fixed MCF-7 and T47D cells were resuspended in PBS at concentration of 1×10^6 cells/100 µl and stained by addition of 5 µl of 7-AAD (BD Bioscience, San Diego, CA, USA) for 15 min at room temperature in the dark. Flow cytometry analysis was performed using BD FACSAria (BD Biosciences, Franklin Lakes, NJ, USA). Doublets and dead cells were excluded from the analysis. Flow cytometry data were analyzed using FlowJo 10.8.1 cytometry analysis software (FlowJo, LLC).
# [4] = test system: LNCaP cells; test: FACS cell cycle analysis; type: cell-based; details: 1 µM, 48 h, DRAQ5
# Procedure: as §1
# [5] = test system: T47D cells; test: FACS cell cycle analysis; type: cell-based; details: 1 µM, 48 h, 7-AAD
# Procedure: as §1
# [6] = test system: MCF-7 cells; test: FACS cell cycle analysis; type: cell-based; details: 1 µM, 48 h, 7-AAD
# Procedure: as §1
# [7] = test system: AR target gene expression; test: Quantitative RT-PCR of AR target genes in LNCaP cells; type: cell-based; details: 10 nM DHT, 16 h, compared among the six selected imidazopyridines
# Procedure: (§2) MCF-7, T47D and LNCaP cells (5×10^4 each) were seeded in 6-well plates and cultured with hormone-depleted medium for 3 days. Subsequently, the MCF-7 and T47D cells were treated with 10 nM 17-β-estradiol (E2) or dihydrotestosterone (DHT) for the LNCaP cells, 1 µM) X15695 (for the MCF-7 and T47D cells) or 5 µM) for LNCaP cells and X15695 together with E2 or DHT. A 1 h pre-treatment with X15695 was performed prior to treatment with E2 or DHT for 16 h. RNA was extracted using innuPREP RNA mini Kit 2.0 (Analytic Jena, Berlin, Germany). 1 µg RNA per sample was used as input material for the RNA sample preparations. Sequencing libraries were generated using NEBNext® UltraTM RNA Library Prep Kit for Illumina® (NEB, USA) following the manufacturer's recommendations and index codes were added to attribute sequences to each sample. The clustering of the index-coded samples was performed on a cBot Cluster Generation System using PE Cluster Kit cBot-HS (Illumina) according to the manufacturer's instructions. After cluster generation, the library preparations were sequenced on an Illumina platform and paired-end reads were generated. Library preparation and sequencing were carried out by Novogene Europe, Cambridge, UK. […] Select target genes were analyzed by RT-PCR experiments with RNA from the samples used for the RNA-seq analysis. […]
# [8] = test system: ERα response genes; test: Quantitative RT-PCR of ERα response genes in MCF-7 and T47D cells; type: cell-based; details: 1 µM, 10 nM E2, 16 h
# Procedure: as §2
# [9] = 30 mg/kg body weight per os daily
# [10] = Western blot after the treatment period
smiles,measurement,setting,value
"Fc1ccc(-c2cn3cc(C(F)(F)F)cc(Cl)c3n2)cc1 [Compound X15695, 8-Chloro-2-(4-fluorophenyl)-6-(trifluoromethyl)imidazo[1,2-a]pyridine]",tumor volume,[1]; [9],significant decrease
same,tumor weight,[1]; [9],significant decrease
same,"tolerability, body weight","[1]; 30 mg/kg body weight per os daily, 16 days",well tolerated and did not cause any weight loss or other signs of host toxicity
same,ERα level in tumor lysates,[1]; [10],significant decrease in ERα level
same,p53 expression in tumor lysates,[1]; [10],increase in p53 expression
same,ROS production,[2]; MCF-7 cells,significant dose-dependent production of ROS
same,ROS production,[2]; T47D cells,not in T47D cells
same,cell cycle arrest,[3],G2/M arrest
same,cell cycle arrest,[4],G1/S phase arrest
same,cell cycle arrest,[5],G2/M cell cycle arrest
same,cell cycle arrest,[6],G1/S phase arrest
same,attenuation of androgen-induced AR target gene expression,[7],the compound with the most inhibitory activity
same,E2-mediated gene expression,[8],downregulation of E2-mediated gene expression
